Consider three compounds from US10183038B2, “Method for preventing and treating renal disease” (L & F Research LLC, priority 2010, dated 2019).

The subject of one assay is LPS induced proteinuria. The assay is described as follows: LPS induced proteinuria in mice. Type of assay: in vivo. The settings on record: 4000 mg/kg intravenously 1 hour prior to LPS, urines 30 hours after first LPS injection, p<0.05 LPS+CD versus LPS. As for the experimental part: FIG. 6A-FIG. 6B: Depicts that CD partially prevents LPS induced podocyte damage. FIG. 6A: Depicts the results when HPBCD was administered intravenously (4000 mg/kg) 1 hour prior to LPS injection (200 ug/20 g mouse intraperitoneally). Urines were collected […] after LPS injection and analyzed for albumin/creatinine ratio by ELISA. p<0.05 when comparing LPS+CD versus LPS. FIG. 6B: Depicts that CD prevented LPS induction of MyD88 in isolated glomeruli in vivo. Referring to FIG. 6A, the antiproteinuric effects of CD were tested in an established experimental model of LPS induced proteinuria. Three mice per group were utilized. Mice were left untreated (CTRL), or received one injection of 4000 mg/kg Hydroxypropyl-beta-cyclodextrin (CD), or two injections of 200 μg LPS 24 hours apart (LPS), or received 4000 mg/kg of CD 1 hour prior to LPS treatment (LPS+CD). Urines were collected at 30 hours after the first LPS injection and analyzed for albumin and creatinine content by ELISA. Albuminuria was determined as the ratio between albumin and creatinine (μg/mg).

In assay [1] the test system is human podocytes exposed to DM w DN sera. The assay is described as follows: Human podocytes exposed to sera of diabetic patients with DN (blebbing, cholesterol, apoptosis). Type of assay: cell-based. Particulars: normal human podocytes exposed to sera of patients with diabetic nephropathy; cholesterol depletion with Methyl-beta-cyclodextrin. As for the experimental part: DN is a chronic progressive disease that affects a sizable subset of patients with diabetes. Despite the identification of multiple risk factors that contribute to the development of DN, it has remained difficult to identify the subset of patients with diabetes at risk for DN. This led to testing to determine if an in vitro prediction assay could be developed. For this purpose, the following experiments were conducted. Non-identifiable samples of patient sera were obtained. Samples consisted of serum collected from 10 patients with diabetes and macroalbuminuria (DM w DN) and 10 diabetic normoalbuminuric patients (DM w/o DN) well matched for HgA1C (7.9%), total cholesterol levels and the duration of diabetes. Normal human sera (NHS) from 10 age and sex matched healthy subjects were also utilized as controls. Differentiated human podocytes were serum starved for 24 hours and then exposed to 4% serum of NHS, DM w/o DN, DM w DN for 24 hours. […] Total cholesterol was also determined with an enzymatic reaction. Total cholesterol was increased in podocytes treated with DM w DN when compared to DM w/o DN and NHS (FIG. 3D, *p<0.05), a phenomenon that was prevented by CD (FIG. 3D, #p<0.05). Cell blebbing was predictive of DN, as sera collected from patients before progressing to DN at the time they were normoalbuminuric already caused cell blebbing (FIG. 3E).

Assay [2] deals with patients at high risk for recurrent FSGS after transplantation. The assay is described as follows: Clinical outcome after kidney transplantation in patients at high risk for recurrent FSGS, rituximab vs historical controls. The format is in vivo, human.
The next assay deals with CD19+ cells. The assay is described as follows: CD19 count in transplanted FSGS patients after rituximab. The format is in vivo, human. Particulars: N = 27. The text has this: W=white, B=black, M=male, F=female, ESRD=end stage renal disease, LD=living donor, DD=deceased donor. ΔeGFR: variation of eGFR. *p<0.05.
Assay [3] has as its system SMPDL-3b. The assay is described as follows: SMPDL-3b expression in podocytes cultured with FSGS patient sera. The format is cell-based, human. The settings on record: recurrent FSGS (FIG. 2). The protocol: FIG. 2A: Depicts low- and high-power images of immunoperoxidase staining for SMPDL-3b and synaptopodin in post-reperfusion biopsies of patients with recurrent (REC) and non-recurrent (NON-REC) FSGS. Arrows point to podocytes. Scale bars: 25 μm top and 15 μm bottom. […] All kidney biopsies were obtained prior to initiation of treatment with rituximab. An average of 13±4 glomeruli per patient were analyzed. *p<0.05, unpaired Student's t test. Data are mean±s.d. […] Data are mean±s.d. *p<0.05 and **p<0.01 by one-way ANOVA. […] Data are mean±s.d. *p<0.05 and **p<0.01 by one-way ANOVA. […] Data are mean±s.d. *p<0.05 and **p<0.01 by one-way ANOVA. […] Data are mean±s.d. *p<0.05 and **p<0.01 by one-way ANOVA.
(A) Low- and high-power images of immunoperoxidase staining for SMPDL-3b and synaptopodin in post-reperfusion biopsies of patients with recurrent (REC) and non-recurrent (NON-REC) FSGS. Arrows point to podocytes. […] All kidney biopsies were obtained prior to initiation of treatment with rituximab. […] (G) ASMase activity per μg of total lysate protein, as evaluated by ELISA.

For assay [4], the target named is T1, SMPDL-3B (Homo sapiens, UniProt Q92485).
T1 sequence (Q92485 19-455): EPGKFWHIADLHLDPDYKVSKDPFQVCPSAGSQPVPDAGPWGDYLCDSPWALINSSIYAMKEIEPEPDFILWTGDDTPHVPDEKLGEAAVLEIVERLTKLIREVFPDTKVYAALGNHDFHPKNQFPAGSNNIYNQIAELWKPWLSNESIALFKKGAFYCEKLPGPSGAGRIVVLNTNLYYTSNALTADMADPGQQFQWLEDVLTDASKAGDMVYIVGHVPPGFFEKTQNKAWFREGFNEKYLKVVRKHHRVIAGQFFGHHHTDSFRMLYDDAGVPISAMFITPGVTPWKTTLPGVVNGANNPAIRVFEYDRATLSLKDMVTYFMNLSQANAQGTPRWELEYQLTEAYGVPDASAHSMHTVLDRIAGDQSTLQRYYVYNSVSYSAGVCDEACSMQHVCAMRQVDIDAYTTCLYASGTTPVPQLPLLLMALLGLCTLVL
The settings on record: cited from earlier work.

Where [5] appears, read: number of patients (%), N = 27, one dose of rituximab (375 mg/m^2) within 24 hours of transplant.

For `CC(O)COC[C@H]1O[C@@H]2O[C@H]3[C@H](O)[C@@H](O)[C@@H](O[C@H]4[C@H](O)[C@@H](O)[C@@H](O[C@H]5[C@H](O)[C@@H](O)[C@@H](O[C@H]6[C@H](O)[C@@H](O)[C@@H](O[C@H]7[C@H](O)[C@@H](O)[C@@H](O[C@H]8[C@H](O)[C@@H](O)[C@@H](O[C@H]1[C@H](O)[C@H]2O)O[C@@H]8COCC(C)O)O[C@@H]7COCC(C)O)O[C@@H]6COCC(C)O)O[C@@H]5COCC(C)O)O[C@@H]4COCC(C)O)O[C@@H]3COCC(C)O` (stereo partly drawn) [Hydroxypropyl-beta-cyclodextrin], in the assay on LPS induced proteinuria, the “LPS induced proteinuria (albumin/creatinine ratio by ELISA)” value was “protects from Lipopolysaccharide (LPS) induced proteinuria”.
For the compound Methyl-beta-cyclodextrin, in assay [1], the cell blebbing entry is listed as “prevents”.
Regarding rituximab, the Graft survival came out at 100% in assay [2] (6 months, N = 27) and 95.8% in assay [2] (12 months, N = 27). Further, the “difference in graft survival between groups” value in assay [2] (at 6 and 12 months, rituximab group vs control group) is “no significant difference”. Moreover, the “incidence of recurrent nephrotic range proteinuria and need for plasmapheresis” value in assay [2] (between day 3 and 30 after transplantation, rituximab group vs control group) is reported as “significantly lower”. Besides, in assay [2] (setting [5]), the “Nephrotic proteinuria w/i 1 Mo” value is given as 7 (26%). Further, in assay [2] (setting [5]), the “Plasmapheresis w/I 1 Mo” value is listed as 8 (30%). For the same compound, the “CD 19 count” value in the assay on CD19+ cells (Week 0) stood at 360 ± 223; with CD19+ cells (Week 0.5), 107 ± 115; with CD19+ cells (Week 1) it was 45 ± 31; with CD19+ cells (Week 2), 16 ± 23; in the assay with CD19+ cells (Week 3) it was 5 ± 6; in the assay on CD19+ cells (Week 4), 6 ± 7. Also, the “downregulation of SMPDL-3b” value in the assay on SMPDL-3b [3] was “prevents the downregulation of SMPDL-3b”. In the assay with SMPDL-3B [4], the “binding to SMPDL-3B” value was “found to bind SMPDL-3B”.
